# Laboratory results as given in patent US12589099B2 (priority 2021, dated 2026).
# Legend:
# [1] = tested on: moderate traumatic brain injury (TBI) induced by controlled cortical impact (CCI); assay: Foot-fault test (right forelimb and hindlimb) after TBI; format: in vivo, male Wistar rats
# Description: FIG. 2: The figure illustrates functional tests that are carried out on healthy (sham surgery) no treatment, vehicle treated and ALPHA-1062 treated rats to assess sensorimotor and cognitive function after TBI. Sensimotor function tests. a) The figure depicts tests to assess the modified neurological severity score (mNSS). […] The animal is required to balance over a grid and the frequency of steps missing the grid are counted. This test assesses the functionality of the injured parietal cortex of the rat's brain. c) The adhesive removal test consists of applying adhesive tape on each forepaw of the animal and measuring the time-to-contact and the time-to-remove them. This behavior requires correct paw and mouth sensitivity (time-to-contact) and correct dexterity (time-to-remove). Cognitive function tests: a) This picture illustrates the Morris water maze that comprises that a rat is placed in a large circular pool (picture on the left) and is required to find an invisible platform that allows it to escape the water by using various visuo-spatial cues. This test is used to study spatial learning and memory and assesses hippocampal and select cortical brain region function. Usually, the path of the rat through the pool is tracked (picture on the right) and the time spend in the proximity of the platform as well as the time needed until the platform is found by the rat are measured. b) For the new/novel object recognition (NOR) test, after a habituation time in the test space (picture on far left) rats are given the opportunity to explore two identical objects (A) for a predetermined period of time (picture in the middle). After a delay, the animals are then presented with two objects to explore, one of which is the same as in the first exploration trial (A), the other a new object (B) (picture on the right). Depending on the length of the delay between the two trials or depending on the extend of cortical damage, the rats will either explore the novel object for a greater time period, indicating memory for the familiar object, or will explore the novel and familiar objects for the same amount of time, indicating a lack of recall or loss of memory for the familiar object presented during the initial trial.
# (§1) Young adult (2-3 months) male Wistar rats were subjected to a moderate traumatic brain injury (TBI) induced by controlled cortical impact (CCI). Animal models of TBI including the CCI model and functional tests have been described in detail in peer reviewed publications (Xiong et al., 2013, Nat Rev Neurosci.; Zhang et al., 2016, J Neurosurg.; Zhang et al., 2016, Neurochem Int.; Zhang et al., 2021, J Neurotrauma). Injury consisted of a single impact at 4.0 m/sec, 2.5 mm deformation to the left parietal cortex. In addition, a group of animals was left healthy/not injured to serve as a healthy control.
# (§2) The animals were divided into 3 groups: • 1) TBI+Vehicle (purified water, n=10) • 2) TBI+ALPHA-1062 (4.5 mg/kg) (n=10) • 3) Healthy/not injured and not treated (Sham surgery) (n=10)
# (§3) The substance used in this study was ALPHA-1062 at 4.5 mg/kg. As control treatment (vehicle) purified water was administered intranasally (IN). The ALPHA-1062 and the control treatment were initiated 2 hours after injury and continued twice daily (with a 6-hour interval) for 35 consecutive days.
# (§4) In addition, neurological functional tests were performed by conducting footfault tests and observations to determine the modified neurological severity score (mNSS) at 1, 7, 14, 21, 28, 35 days after TBI (see Table 1). The mNSS is a composite score assessing motor, sensory, balance, and reflex functions. Details of the tests and scoring system can be found in Table 2.
# Animals were monitored as they walked across a mesh for the number of times their right forelimb “missed” proper placement, indicating reduced locomotor skill. This is indicative of trauma in the left side of the brain. The results are depicted in FIG. 3. […]
# [2] = tested on: moderate traumatic brain injury (TBI) induced by controlled cortical impact (CCI); assay: Modified neurological severity score (mNSS) after TBI; format: in vivo, male Wistar rats
# Text: as §1, §2, §3
# as §4, with “Details of the tests and scoring system can be found in Table 2.” left out
# [3] = rats after TBI, compared to vehicle treatment
structure (smiles),measurement,setting,value
"COc1ccc2c3c1O[C@H]1C[C@@H](OC(=O)c4ccccc4)C=C[C@@]31CCN(C)C2 [ALPHA-1062, (4aS,6R,8aS)-5,6,9,10,11,12-hexahydro-3-methoxy-11-methyl-4aH-[1]benzofuro[3a,3,2-ef][2]benzazepin-6-ol benzoate]",foot-fault performance compared to uninjured (sham) animals,"[1]; 4.5 mg/kg IN twice daily, by day 28 (D28)",statistically indistinguishable
same,"locomotor skill in fore- and hindlimb foot-fault test, acute","[1]; 4.5 mg/kg IN twice daily, from the first day of treatment, vs vehicle",statistically significant preservation of locomotor skill
same,recovery of locomotor skill in fore- and hindlimb foot-fault test,"[1]; 4.5 mg/kg IN twice daily, throughout the study, vs vehicle",persistently statistically significantly improved recovery
same,right forelimb foot faults during the walk over a mesh,"[1]; 4.5 mg/kg IN, 2 h post injury, twice daily, 35 days, vs vehicle after TBI (FIG. 3)",significantly fewer foot faults
same,right hindlimb foot faults during the walk over a mesh,"[1]; 4.5 mg/kg IN, 2 h post injury, twice daily, 35 days, vs vehicle after TBI (FIG. 4)",significantly fewer foot faults
same,"Footfault, performance over SHAM","[1]; rats after TBI, compared to healthy sham animals",equivalent to
same,"Footfault, performance over VEHICLE",[1]; [3],superior
same,mNSS performance,"[2]; 4.5 mg/kg IN twice daily, from day 14 (D14) onwards, vs vehicle",statistically significantly better
same,"Modified Neurological Severity Score (mNSS), performance over VEHICLE",[2]; [3],superior
